Data taken from ChEMBL document CHEMBL3217633, “Simplified platensimycin analogues as antibacterial agents” (2012).
Values after ≈ are worked out from the molar mass of the structure shown. Active and inactive are the calls of the source. The rule behind the calls is not given here.

Tests used:
[1] = tested on: Staphylococcus aureus; assay: Antimicrobial activity against methicillin-resistant Staphylococcus aureus ATCC 43300 at 10 ug/disc after 24 hrs by disc diffusion assay; format: functional; details: ATCC 43300, 24 h, read-out: DIZ
[2] = tested on: Staphylococcus aureus; assay: Antimicrobial activity against methicillin-resistant Staphylococcus aureus ATCC 43300 at 1 mg/disc after 24 hrs by disc diffusion assay; format: functional
[3] = tested on: Staphylococcus aureus; assay: Antimicrobial activity against heterogeneous vancomycin-intermediate Staphylococcus aureus ATCC 700698 after 24 hrs by broth microdilution method; format: functional; details: ATCC 700698, 24 h
[4] = tested on: Klebsiella pneumoniae; assay: Antimicrobial activity against Klebsiella pneumoniae ATCC 13883; format: functional, organism-based
[5] = tested on: Staphylococcus aureus; assay: Antimicrobial activity against methicillin-resistant Staphylococcus aureus ATCC 43300 after 24 hrs by broth microdilution method; format: functional; details: ATCC 43300, 24 h
[6] = tested on: Pseudomonas aeruginosa; assay: Antimicrobial activity against Pseudomonas aeruginosa ATCC 27853; format: functional, organism-based
[7] = tested on: Staphylococcus aureus; assay: Antimicrobial activity against vancomycin-intermediate Staphylococcus aureus ATCC 700699 after 24 hrs by broth microdilution method; format: functional; details: ATCC 700699, 24 h
[8] = tested on: Acinetobacter baumannii; assay: Antimicrobial activity against Acinetobacter baumannii ATCC 19606; format: functional

SMILES | zone of inhibition at 10 µg/disc [1] | diameter of the inhibition zone (DIZ) [2] | also measured
CCC(=O)Nc1c(O)ccc(C(=O)O)c1O | 0 mm | – | –
CCC1(C(=O)Nc2c(O)ccc(C(=O)O)c2O)CCCCC1 | 0 mm | 10 mm | –
CC(C)(C)C(=O)Nc1cccc(C(=O)O)c1O | 0 mm | – | –
O=C(O)c1ccc(O)c(NC(=O)C2CCCC2)c1O | 0 mm | 8 mm | –
O=C(O)c1ccc(O)c(NC(=O)C2CCCCC2)c1O | 0 mm | – | –
CC12CC[C@](C(=O)Nc3cccc(C(=O)O)c3O)(OC1=O)C2(C)C | 0 mm | 14 mm | –
O=C(O)c1cccc(NC(=O)C2CCCC2)c1O | 0 mm | – | –
O=C(O)c1cccc(NC(=O)C2CCCCC2)c1O | 0 mm | – | –
CC12CC[C@](C(=O)Nc3c(O)ccc(C(=O)O)c3O)(OC1=O)C2(C)C | 18 mm | 38 mm | –
CC(C)(C)C(=O)Nc1c(O)ccc(C(=O)O)c1O | 0 mm | – | –
CC(=O)NC[C@H]1CN(c2ccc(N3CCOCC3)c(F)c2)C(=O)O1 [LINEZOLID] | 26 mm | – | –
CC12CC[C@@](C(=O)Nc3cccc(C(=O)O)c3O)(OC1=O)C2(C)C | 0 mm | 21 mm | –
O=C(O)c1ccc(O)c(NC(=O)C23CC4CC(CC(C4)C2)C3)c1O | 0 mm | 11 mm | –
CCC(=O)Nc1cccc(C(=O)O)c1O | 0 mm | – | –
CCCC(=O)Nc1c(O)ccc(C(=O)O)c1O | 0 mm | 20 mm | –
CCC1(C(=O)Nc2cccc(C(=O)O)c2O)CCCCC1 | 0 mm | 10 mm | –
CC12C[C@@]34C=CC(=O)[C@@](C)(CCC(=O)Nc5c(O)ccc(C(=O)O)c5O)C3[C@H](CC1C4)O2 (stereo partly drawn) [PLATENSIMYCIN] | 30 mm | – | MIC [3]: 2 µg/mL (≈ 4.53 µM); Activity [4]: inactive; MIC [5]: 2 µg/mL (≈ 4.53 µM); Activity [6]: inactive; MIC [7]: 2 µg/mL (≈ 4.53 µM); Activity [8]: inactive
CC(C)C(=O)Nc1c(O)ccc(C(=O)O)c1O | 0 mm | – | –
CCCC(=O)Nc1cccc(C(=O)O)c1O | 0 mm | – | –
CC12CC[C@@](C(=O)Nc3c(O)ccc(C(=O)O)c3O)(OC1=O)C2(C)C | 0 mm | 22 mm | –
O=C(O)c1cccc(NC(=O)C23CC4CC(CC(C4)C2)C3)c1O | 0 mm | 11 mm | –
CC(C)C(=O)Nc1cccc(C(=O)O)c1O | 0 mm | – | –
